Experimental data from patent US11560597B2, “Application of epigenetic chromosomal interactions in cancer diagnostics” (Oxford BioDynamics, PLC, priority 2016, dated 2023).
“And” between values parts separate entries of the source, which are not always exact repeats. Equal values may be shown once. “Also recorded” adds a separate entry of the source.

Key:
[1] = test system: MMP1 chromosome conformations; assay: MMP-1 3C quantification in DBTRG-05MG (glioblastoma) cells treated with GSK864; format: cell-based
Method: (§1) MMP-1 3C quantification with no-fixation controls and a formaldehyde treated samples. The exemplary cell lines used in this application are: • (a) DBTRG-05MG (glioblastoma). • (b) HL-60 (acute myeloid leukaemia).
These cell lines have been treated with the IDH1 inhibitor GSK864 over 24 hrs and 48 hrs.

[2] = test system: MMP1 chromosome conformations; assay: MMP-1 3C quantification in HL-60 (acute myeloid leukaemia) cells treated with GSK864; format: cell-based
Method: as §1
The HL60 cell lines have been treated with the IDH1 inhibitor GSK864 over 24 hrs and 48 hrs.

MMP1 3C interaction = MMP1 3C interaction hydrolysis probe qPCR in BT142 cell line; conditions: BT142 cells, imatinib 1 μM
[3] = test system: cKIT 3C interaction ORF3_4_54711719_54715167_54736749_54740853_FR; assay: cKIT 3C interaction PCR on imatinib treated BT142 cells; format: cell-based; conditions: 1 μm imatinib, 20 ng of template per well
Method: Example of novel data regarding the action of imatinib in the following imatinib responsive selected gene is described below. 20 ng of template was added to each well for samples treated with imatinib.
cKIT and exemplary data. The BT142 cells have been treated with 1 μm of imatinib. 20 ng of template was loaded into each well.
The product in well Cl has been confirmed as the cKIT interaction named above (ORF3_4_54711719_54715167_54736749_54740853_FR).

| SMILES | Effect on MMP1 chromosome conformations (3C MMP1 copy number), in words ([1]; DBTRG cell line, GSK864 1 μm, over 24 hrs and 48 hrs) | Copy number in 20 ng ([1]; DBTRG cells, 24 hr, GSK 1 um, MMP1 3C) | Effect on MMP1 chromosome conformations (3C MMP1 copy number), in words ([2]; HL60 cell line, GSK864 1 μm, over 24 hrs and 48 hrs) | Cq ([2]; HL-60 cells, 48 hr GSK864) | MMP1 copy number (MMP1 3C interaction; 20 ng of template per well) | Cq (MMP1 3C interaction; MMP1 3C interaction) | cKIT 3C interaction in imatinib treated cells [3] |
| --- | --- | --- | --- | --- | --- | --- | --- |
| COc1c(C)cc(NC(=O)c2nn(Cc3ccc(F)cc3)c3c2CN(C(=O)c2ccc[nH]2)C[C@]3(C)C(N)=O)cc1C [GSK864] | binary difference; also recorded: direct action on 3C MMP1 copy number | NaN (NaN = 0 copies) | quantitative differences; also recorded: binary quantitative difference; also recorded: direct action on 3C MMP1 copy number | 40.33 and 37.5 and 37.11 |  |  |  |
| Cc1ccc(NC(=O)c2ccc(CN3CCN(C)CC3)cc2)cc1Nc1nccc(-c2cccnc2)n1 [Imatinib] |  |  |  |  | 37.22 and 26.43 and 31.45 | 35.64 and 36.15 and 35.89 | completely absent |
